From patent US20250127698A1, “Hair Perming Compositions With Amine Derivatives” (ELC Management LLC, priority 2023, published 2025)

Columns and labels:
[1] = pH of hair perming composition; assay type: physicochemical; conditions: for pH: hair perming composition: base of Table 2 (7.50% thioglycolic acid) plus alkalizer, same molar percentage of alkalizer
Excerpt: For testing, we prepared the hair perming compositions shown by Tables 2 and 3, below. […] All compositions contain the same molar percentage of alkalizer, the water content being adjusted accordingly.

[2] = Straightening efficiency after hair straightening treatment; design: species or system human; conditions: Type 2C Caucasian hair; for Straightening Efficiency (%) After Treatment, 1 Wash and Dry: 1 wash with 5% SDS solution
Excerpt: The ability of each test composition to straighten curly hair was established by measuring “straightening efficiency”. Straightening efficiency represents the degree to which curly hair is made straight by a hair straightening treatment. We start with a curly, untreated hair tress of length Lu. The tress has an ideal straight length of Li, which is the length of the untreated tress when flat ironed to its maximum, straight length. After treatment the tress has a length of Lt. Straightening efficiency is the gain in length as a percentage of the maximum possible gain in length. […] A straightening efficiency of 100% means that the treated tress retained the maximum possible length.
(§1) Two types of hair samples were tested for curling; mixed sourced virgin Type 1Caucasian hair, and single sourced virgin Type 1 hair. For straightening, mixed sourced virgin Type 2C (very wavy) Caucasian hair was tested. Hair straightening test samples were prepared by collecting hair fibers into tresses, and clamping each tress at both ends. For those test samples that were to undergo a straightening treatment, the length, Lu, was measured between two previously determined points.
(§2) Each hair tress was wetted (reverse osmosis water). For curling, each hair tress was wound along a peg board to form a sine wave pattern of five cycles, as described above. For straightening, each hair tress was held on a board in a straight conformation, tension was applied, and the ends of the tress were secured. All test samples (curling or straightening) were allowed to dry before proceeding. Each board with a hair tress test sample was dipped for 10 seconds into a beaker with one of the hair perming compositions. After removing a board from solution, it was immediately placed in an oven for 20 minutes at 37° C. (normal body temperature). The test sample was removed from the oven, and rinsed for five minutes with 37° C. water, being careful not to allow the running water to fall directly on the hair tresses. After blotting with a paper towel, test samples were allowed to rest for five minutes at room temperature, for air oxidation to occur. The hair straightening test samples were removed from the board, blow dried and flat ironed at 200° C., which is commonly done in salon practice. At this point, the ideal length, Li, was measured between the two previously determined point mentioned above. Thereafter, each sample was rebound to the board.
(§3) Each bound hair tress was submerged for ten seconds in a 2% solution of H2O2 to neutralize the reducing agent and promote S-S bond formation, so that the hair tress would retain a desired shape (sine wave pattern or straight) when removed from the board. Each hair tress rested at room temperature for about five minutes, then was rinsed under 37° C. running water for five minutes, and subsequently blotted with a paper towel. Each test sample hair tress was removed from the board, laid on a flat surface, and allowed to dry. The fully permed dry tresses were washed in 5% SDS (sodium dodecyl sulfate) solution (which simulates salon practice) and allowed to dry overnight.
(§4) For the curling test samples, the length, Lt, of five waves, crest to crest was measured. For the straightening test samples, the final length, Lt, was measured between the two previously determined points. At this point, differential scanning calorimetry (DSC) measurements were made on a portion of each hair tress test sample. Also, for longevity performance, each tress was subjected to the equivalent of eight hand washings in 5% SDS solution using the GyroWash color fastness to laundering tester, and allowed to dry, before another length measurement, Lt, was made.
Straightening efficiencies were computed using Equation 2.
[formula] • Lu=length of the untreated hair tress • Lt=length of treated hair tress • Li=ideal length of straightened hair
(Li−Lu) represents the maximum possible increase in length as a result of treatment. […]

[3] = DSC keratin denaturation temperature change after curling treatment; design: species or system human; conditions: for ΔT (TUntreated−TAlkalizer, keratin denaturation temperature): Type 1 Chinese hair after curling treatment, larger ΔT indicates more damage; for damage to hair (in words): hair curling treatment, Type 1 Chinese hair
Excerpt: (§5) This damage occurs at the level of keratin proteins.
(§6) Untreated hair was used as a control.
(§7) A larger ΔT indicates more damage.

[4] = DSC keratin denaturation temperature change after straightening treatment; design: species or system human; conditions: for ΔT (TUntreated−TAlkalizer, keratin denaturation temperature): Type 3 Caucasian hair after straightening, larger ΔT indicates more damage; for damage to hair (in words): hair straightening treatment, Type 3 Caucasian hair
Excerpt: as §5, §6, §7

[5] = DSC keratin denaturation temperature change after curling treatment; conditions: for ΔT (TUntreated−TAlkalizer, keratin denaturation temperature): Type 1 Caucasian hair after curling treatment, larger ΔT indicates more damage; for damage to hair (in words): hair curling treatment, Type 1 Caucasian hair
Procedure: It is known that the denaturation of keratin in hair can be detected by differential scanning calorimetry (DSC). DSC is a thermal analysis technique used to measure phase transition temperatures and heat of transformation (enthalpy) for endothermic and exothermic reactions.
For all of the test samples discussed above, DSC measurements were performed using the Discovery DSC 2500 (from TA Instruments. New Castle, DE). The experiments were carried out over a temperature range of 40° C. to 200° C., with a scan rate of 5° C./min under nitrogen protection. DSC samples were prepared by cutting tress samples into pieces (0.1 to 1.0 mm in size) and weighing. The hair samples were mixed with deionized water, and then sealed in high volume pans for at least 6 hours before measuring. The phase transition temperature (keratin denaturation temperature) of each hair sample was analyzed using TRIOS software (Discovery DSC 2500). Untreated hair was used as a control.
Each hair sample was analyzed at least twice, and the average temperature was obtained for data analysis. This was subtracted from the denaturation temperature of the control sample (ΔT=TUntreated−TAlkalizer). A larger ΔT indicates more damage.

[6] = Curl efficiency after hair curling treatment; design: species or system human; conditions: Type 1 Caucasian hair; for Curl Efficiency (%) After Treatment, 1 Wash and Dry: 1 wash with 5% SDS solution; for Curl Efficiency (%) After Treatment, 8 Washes and Dry: equivalent of 8 washes with 5% SDS solution
Excerpt: (§8) The ability of each test composition to curl hair was established by measuring “curl efficiency”. Curl efficiency is a measure of curl tightness following a hair curling treatment. The higher the efficiency, the tighter the curl. We used a well-known method of measuring curl efficiency, wherein a portion of untreated straight hair of known length, Lu, is secured on an arrangement of pegs to form a sine wave pattern of five cycles, crest-to-crest. Because the pegs are fixed, the ideal length, Li, of the portion of hair when arranged into the five-cycle wave pattern, is known. Starting with a straight swatch of hair of length Lu, the ideal outcome would be a curled swatch of hair with a length of Li. Curl efficiency is a measure of how closely the ideal is attained.
as §1, §2, §3, §4
(§9) Curl efficiencies were computed using Equation 1.
(§10) [formula] • Lu=length of the untreated hair tress • Lt=crest-to-crest length of the five-wave portion of the treated hair tress • Li=ideal length of curled hair […]

[7] = Curl efficiency after hair curling treatment; design: species or system human; % Change In Curl Efficiency From 1 to 8 Washes: concentration or dose not given beside the values; conditions: Type 1 Chinese hair; for Curl Efficiency (%) After Treatment, 1 Wash and Dry: 1 wash with 5% SDS solution; for Curl Efficiency (%) After Treatment, 8 Washes and Dry: equivalent of 8 washes with 5% SDS solution
Excerpt: as §8, §1, §2, §3, §4, §9, §10

Structure (SMILES) | pH of alkalizer composition ([1]; Table 7) | pH of alkalizer composition ([1]; Table 8) | pH of alkalizer composition ([1]; Table 9) | pH [1] | ΔT (TUntreated−TAlkalizer, keratin denaturation temperature) [3] | damage to hair (in words) [3] | ΔT (TUntreated−TAlkalizer, keratin denaturation temperature) [4] | damage to hair (in words) [4] | ΔT (TUntreated−TAlkalizer, keratin denaturation temperature) [5] | damage to hair (in words) [5] | % Change In Curl Efficiency From 1 to 8 Washes [6] | Curl Efficiency (%) After Treatment, 1 Wash and Dry [6] | Curl Efficiency (%) After Treatment, 8 Washes and Dry [6] | % Change In Curl Efficiency From 1 to 8 Washes [7] | Curl Efficiency (%) After Treatment, 1 Wash and Dry [7] | Curl Efficiency (%) After Treatment, 8 Washes and Dry [7] | Straightening Efficiency (%) After Treatment, 1 Wash and Dry [2] | further results
NC(CO)(CO)CO [Tris, Tromethamine] | 8.36 | 8.36 | 8.36 | 8.36 | −0.77 C. ° | less damage than ammonium hydroxide | 0.07 °C | less damage than ammonium hydroxide | 1.11 °C | less damage than ammonium hydroxide |  |  |  |  |  |  |  | straightening (in words) [2]: performed better than ammonium hydroxide and MEA, but not as well as AMP
CCC(N)(CO)CO [AEPD, 2-Amino-2-ethyl-1,3-propanediol] | 9.09 | 9.09 | 8.98 | 9.09 | 1.31 C. ° |  | 1.13 °C |  | 2.36 °C |  | −6.40% | 43.93% | 41.12% | −15.09% | 53.93% | 45.79% | 94.70% | 
CN(C)C(C)(C)CO [DMAMP, 2-Dimethylamino-2-methyl-1-propanol] | 10.18 | 10.18 | 10.18 | 10.18 | 5.78 C. ° | caused the most damage | 1.43 °C | comparatively little damage | 6.06 °C | almost as much damage as NaOH | −20.91% | 44.86% | 35.48% | −17.06% | 58.60% | 48.60% | 93.75% | performance in curling, curl retention and degree of damage (FIG. 1, in words) [6]: did not perform as well as ammonium hydroxide, AMP or MEA; performance in curling, curl retention and degree of damage (FIG. 2, in words) [7]: did not perform as well as ammonium hydroxide, AMP or MEA; performance in straightening and degree of damage versus ammonium hydroxide, AMP and MEA (FIG. 3, in words) [2]: did perform well
CC(N)(CO)CO [AMPD, 2-Amino-2-methyl-1,3-propanediol] | 9.09 | 9.04 | 9.04 | 9.04 | 0.68 C. ° | less damage than ammonium hydroxide | 0.32 °C |  | 1.66 °C |  |  |  |  |  |  |  |  | straightening (in words) [2]: performed better than ammonium hydroxide and MEA, but not as well as AMP
N.O [Ammonium hydroxide, reference compound] | 9.14 | 9.14 | 9.14 | 9.14 | 0.80 C. ° |  |  |  |  |  |  |  |  |  |  |  |  | 
[Na+].[OH-] [NaOH, reference compound] | 10.56 | 10.56 | 10.56 | 10.56 | 5.60 C. ° |  | 4.60 °C |  | 6.34 °C |  | −17.64% | 47.66% | 39.25% | −19.92% | 54.86% | 43.93% | 65.71% | 
NC(CO)CO [Serinol, 2-Amino-1,3-propanediol] | 8.68 | 8.68 | 8.68 | 8.68 | 0.62 C. ° | less damage than ammonium hydroxide | 0.50 °C | less damage than ammonium hydroxide | 1.76 °C | less damage than ammonium hydroxide | −8.15% | 45.79% | 42.06% | −14.82% | 50.47% | 42.99% | 88.24% | 
NCCO [MEA, Monoethanolamine, reference compound] | 9.40 | 9.40 | 9.40 | 9.40 |  |  |  |  |  |  | −7.41% | 50.47% | 46.73% | −13.43% | 64.77% | 56.07% | 65.38% | 
